From article PMC3163375, “Design, Synthesis and Biological Evaluation of New 5,5-Diarylhydantoin Derivatives as Selective Cyclooxygenase-2 Inhibitors” (Scientia Pharmaceutica, 2011)

How the values were obtained:
[1] = target: T1, ovine COX-2 (Ovis aries, UniProt P79208); test: In vitro COX-2 enzyme inhibition, chemiluminescent enzyme assay kit (Cayman); type: biochemical; conditions: for Selectivity index (SI): In vitro COX-2 selectivity index (COX-1 IC50/COX-2 IC50); for IC50: ovine COX-1/COX-2 assay kit, means of two determinations, deviation < 10% of the mean
T1 construct: purchased Cayman Chemical, Ann Arbor, MI, USA
T1 sequence (P79208 17-603): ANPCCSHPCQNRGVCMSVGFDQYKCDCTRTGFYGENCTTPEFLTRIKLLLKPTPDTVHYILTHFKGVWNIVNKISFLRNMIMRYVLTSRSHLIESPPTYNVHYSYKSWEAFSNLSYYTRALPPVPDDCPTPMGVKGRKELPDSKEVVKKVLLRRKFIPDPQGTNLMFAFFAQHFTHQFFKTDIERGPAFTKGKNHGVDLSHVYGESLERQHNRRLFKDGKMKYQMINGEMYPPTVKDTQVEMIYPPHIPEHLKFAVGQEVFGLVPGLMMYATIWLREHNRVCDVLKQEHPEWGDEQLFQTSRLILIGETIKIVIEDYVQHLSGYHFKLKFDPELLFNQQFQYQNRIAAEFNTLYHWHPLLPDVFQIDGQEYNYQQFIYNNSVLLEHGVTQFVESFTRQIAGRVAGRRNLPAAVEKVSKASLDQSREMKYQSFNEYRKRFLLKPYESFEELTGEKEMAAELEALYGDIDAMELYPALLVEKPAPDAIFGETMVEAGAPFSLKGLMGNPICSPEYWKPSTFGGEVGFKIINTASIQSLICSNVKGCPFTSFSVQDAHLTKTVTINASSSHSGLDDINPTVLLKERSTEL
Procedure: (§1) All of the prepared 5,5-diarylhydantoin derivatives having different substituents at the N-3 hydantoin ring were evaluated to investigate the effect of different alkyls on COX-2 selectivity and potency. The ability of the 5,5-diarylhydantoin 4–8 to inhibit the COX-1 and COX-2 isozymes was determined using chemiluminescent enzyme assays (see enzyme inhibition data in Table 1.) according to our previously reported method.
(§2) The ability of the test compounds listed in Table 1 to inhibit ovine COX-1 and COX-2 (IC50 value, μM) was determined using chemiluminescent enzyme assays kit (Cayman Chemical, Ann Arbor, MI, USA) according to our previously reported method.

[2] = target: T2, ovine COX-1 (Ovis aries, UniProt P05979); test: In vitro COX-1 enzyme inhibition, chemiluminescent enzyme assay kit (Cayman); type: biochemical; conditions: ovine COX-1/COX-2 assay kit; means of two determinations, deviation < 10% of the mean
T2 construct: purchased Cayman Chemical, Ann Arbor, MI, USA
T2 sequence (P05979 25-600): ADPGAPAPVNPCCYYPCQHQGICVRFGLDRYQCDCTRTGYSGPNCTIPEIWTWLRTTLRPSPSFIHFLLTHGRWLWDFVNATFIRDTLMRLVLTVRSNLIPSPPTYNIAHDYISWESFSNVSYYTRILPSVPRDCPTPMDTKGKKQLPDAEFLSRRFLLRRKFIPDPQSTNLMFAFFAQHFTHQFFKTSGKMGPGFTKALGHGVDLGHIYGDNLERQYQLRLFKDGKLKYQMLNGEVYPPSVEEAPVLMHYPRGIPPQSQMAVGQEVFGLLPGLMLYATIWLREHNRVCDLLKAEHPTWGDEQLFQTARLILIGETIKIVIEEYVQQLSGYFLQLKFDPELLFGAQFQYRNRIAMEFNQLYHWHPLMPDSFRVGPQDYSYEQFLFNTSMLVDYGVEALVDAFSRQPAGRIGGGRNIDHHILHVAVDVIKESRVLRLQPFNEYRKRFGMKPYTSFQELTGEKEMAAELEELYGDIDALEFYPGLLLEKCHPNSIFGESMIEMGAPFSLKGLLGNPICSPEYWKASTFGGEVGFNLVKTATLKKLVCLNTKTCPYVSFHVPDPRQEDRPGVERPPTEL
Procedure: as §1, §2

| SMILES | Selectivity index (SI) [1] | IC50 [1] | IC50 [2] | melting point |
| --- | --- | --- | --- | --- |
| CS(=O)(=O)c1ccc(C2(c3ccccc3)NC(=O)NC2=O)cc1 (stereo not shown) [Compound 4, 5-[4-(Methylsulfonyl)phenyl]-5-phenylimidazolidine-2,4-dione] | >1298 | 77 nM | > 100000 nM | – |
| CN1C(=O)NC(c2ccccc2)(c2ccc(S(C)(=O)=O)cc2)C1=O (stereo not shown) [Compound 5, 3-Methyl-5-[4-(methylsulfonyl)phenyl]-5-phenylimidazolidine-2,4-dione] | 280.1 | 81 nM | 22700 nM | 212 to 214 °C |

Now from value to molecule:

| Selectivity index (SI) [1] | IC50 [1] | IC50 [2] | melting point | SMILES |
| --- | --- | --- | --- | --- |
| 206.2 | 98 nM | 20200 nM | 91 to 92 °C | CCN1C(=O)NC(c2ccccc2)(c2ccc(S(C)(=O)=O)cc2)C1=O (stereo not shown) [Compound 6, 3-Ethyl-5-[4-(methylsulfonyl)phenyl]-5-phenylimidazolidine-2,4-dione] |
| 70.2 | 171 nM | 12000 nM | 82 to 83 °C | CCCN1C(=O)NC(c2ccccc2)(c2ccc(S(C)(=O)=O)cc2)C1=O (stereo not shown) [Compound 7, 5-[4-(Methylsulfonyl)phenyl]-5-phenyl-3-propylimidazolidine-2,4-dione] |
| 151.1 | 99 nM | 15000 nM | 129 to 130 °C | C=CCN1C(=O)NC(c2ccccc2)(c2ccc(S(C)(=O)=O)cc2)C1=O (stereo not shown) [Compound 8, 5-[4-(Methylsulfonyl)phenyl]-5-phenyl-3-(prop-2-en-1-yl)imidazolidine-2,4-dione] |
